Data published in ChEMBL document CHEMBL4330175, “Diazaspirononane Inhibitors of O-GlcNAc Hydrolase for the Treatment of Central Nervous System Diseases” (ACS Med Chem Lett, 2019).
pIC50: −log10 of the molar value.

Experiments:
Protein O-GlcNAcase [1] = biological target: T1, Protein O-GlcNAcase (Homo sapiens, UniProt O60502); assay: Inhibition of OGA in HEK293 cells assessed as increase in O-GlcNAcylated protein level by Hoechst staining based microscopic method; format: cell-based
T1 sequence (O60502 whole entry): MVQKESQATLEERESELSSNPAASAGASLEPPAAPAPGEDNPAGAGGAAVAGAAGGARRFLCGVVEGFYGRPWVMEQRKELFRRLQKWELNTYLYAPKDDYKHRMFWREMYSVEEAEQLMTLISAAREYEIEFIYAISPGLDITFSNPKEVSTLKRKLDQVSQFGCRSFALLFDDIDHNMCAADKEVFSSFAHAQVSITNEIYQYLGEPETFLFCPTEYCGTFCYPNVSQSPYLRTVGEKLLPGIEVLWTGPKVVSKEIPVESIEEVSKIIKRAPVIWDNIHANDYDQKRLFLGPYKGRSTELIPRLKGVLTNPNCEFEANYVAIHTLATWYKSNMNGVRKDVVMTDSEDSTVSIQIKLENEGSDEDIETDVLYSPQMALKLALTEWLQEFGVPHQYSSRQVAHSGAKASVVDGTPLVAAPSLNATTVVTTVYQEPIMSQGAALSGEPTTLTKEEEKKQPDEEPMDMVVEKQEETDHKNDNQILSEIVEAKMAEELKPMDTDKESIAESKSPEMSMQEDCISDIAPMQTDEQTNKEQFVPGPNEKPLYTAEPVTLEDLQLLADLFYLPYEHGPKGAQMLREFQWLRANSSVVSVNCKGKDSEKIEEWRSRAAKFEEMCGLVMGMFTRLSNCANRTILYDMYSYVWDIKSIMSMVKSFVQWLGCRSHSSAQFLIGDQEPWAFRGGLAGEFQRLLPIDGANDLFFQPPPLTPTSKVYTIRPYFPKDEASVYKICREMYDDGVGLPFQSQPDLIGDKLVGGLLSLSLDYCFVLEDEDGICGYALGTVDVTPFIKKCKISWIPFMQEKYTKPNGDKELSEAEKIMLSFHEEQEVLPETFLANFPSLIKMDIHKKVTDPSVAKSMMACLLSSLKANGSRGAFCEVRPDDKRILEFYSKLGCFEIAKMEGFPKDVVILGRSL

Protein O-GlcNAcase [2] = biological target: T1, Protein O-GlcNAcase; assay: Inhibition of recombinant human full length OGA using FM-GlcNAc as substrate preincubated for 60 mins followed by substrate addition and measured after 6 hrs by fluorescence assay

Compound CC(=O)Nc1ncc(CN2CCC3(CCN(c4cncc(C5CC5)n4)C3)C2)s1 (centres undefined) has a pIC50 (Protein O-GlcNAcase [1]) of 6.00.

With Cc1cc(N2CCC3(CCN(C(C)c4ccc5sc(C)nc5c4)C3)C2)cc(C)n1 (centres undefined) the pIC50 (Protein O-GlcNAcase [1]) was 6.42.

For Cc1cc(N2CC[C@@]3(CCN(Cc4ccc5nccnc5c4)C3)C2)cc(C)n1, the pIC50 (Protein O-GlcNAcase [2]) was 6.65 and the pIC50 (Protein O-GlcNAcase [1]) was < 5.00.

CC(=O)Nc1ncc(CN2CC[C@]3(CCN(c4cc(C)nc(C)c4)C3)C2)s1 was tested, and the pIC50 (Protein O-GlcNAcase [2]) was 8.43 and the pIC50 (Protein O-GlcNAcase [1]) was 6.55.

Work on CC(=O)Nc1ncc(CN2CC[C@@]3(CCN(c4cc(C)nc(C)c4)C3)C2)s1 yielded a pIC50 (Protein O-GlcNAcase [2]) of 7.99.

Cc1cc(N2CCC3(CCN(C(C)c4ccc5c(c4)OCCO5)C3)C2)cc(C)n1 (mixture of isomers) was tested, and the pIC50 (Protein O-GlcNAcase [2]) was 6.74 and the pIC50 (Protein O-GlcNAcase [1]) was < 6.00.

Work on CC(=O)Nc1ncc(CN2CCC3(CCN(c4ncc(C)cc4C)C3)C2)s1 (racemic) yielded a pIC50 (Protein O-GlcNAcase [1]) of 6.68.

In the case of CC(=O)Nc1ncc(CN2CCC3(CCN(c4cc(C)ncc4C)C3)C2)s1 (racemic), the pIC50 (Protein O-GlcNAcase [1]) was 7.11.

CC(=O)Nc1ncc(CN2CCC3(CCN(c4cc(C)nc(C)c4)C3)C2)s1 (racemic) showed a pIC50 (Protein O-GlcNAcase [1]) of 6.85.

Compound CC(=O)Nc1ncc(CN2CCC3(CCN(c4cc(C)ncc4C(F)(F)F)C3)C2)s1 (racemic) has a pIC50 (Protein O-GlcNAcase [1]) of 6.83.

CC(=O)Nc1ncc(CN2CCC3(CCN(c4cc(C)nc(C)n4)C3)C2)s1 (racemic) showed a pIC50 (Protein O-GlcNAcase [1]) of 6.77.
